The values that follow come from US4182897A, “Amino- or guanidino-phenylpropionic acid derivatives” (Torii & Co., Ltd., priority 1977, dated 1980).

The structures appear in SMILES notation. Counter-ions that a name gives are not always drawn. Some results are limits rather than exact numbers.

Data set [1] deals with T1, Trypsin (Bos taurus, UniProt P00760).
T1 sequence (P00760 24-246): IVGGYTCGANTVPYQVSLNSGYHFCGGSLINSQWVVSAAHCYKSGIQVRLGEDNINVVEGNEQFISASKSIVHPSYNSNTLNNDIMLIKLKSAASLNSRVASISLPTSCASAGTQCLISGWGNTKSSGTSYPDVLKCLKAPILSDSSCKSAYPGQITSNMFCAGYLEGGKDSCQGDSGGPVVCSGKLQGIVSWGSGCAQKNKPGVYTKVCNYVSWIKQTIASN
Put plainly: Inhibitory effect on ester-hydrolyzing activity of trypsin (TAMe substrate). The format is biochemical. To be noted: for inhibition at 1000 µM: read-out: percent inhibition at 10^-3 M (trypsin). The procedure:
(A) Determination of Enzyme-inhibitory Activity: The enzyme-inhibitory activities in vitro of the compounds of this invention were measured by the following procedure according to the method of M. Muramatsu et al. [[…]. Makino, Y. Hayashi and S. Fujii: J. […] Then, 10 μmoles of the substrate, TAMe (tosylarginine methyl ester), was added, and incubation was performed at 37° C. for 30 minutes. After the incubation, 1.5 ml of 2 M alkaline hydroxylamine was added and thoroughly mixed, and allowed to stand at room temperature for 15 minutes.

The target of data set [2] is Human Plasmin (Homo sapiens, UniProt P00747). Nature of the data set: Inhibitory effect on ester-hydrolyzing activity of human plasmin (TAMe substrate). The format is biochemical. The following applies: read-out: percent inhibition at 10^-3 M (plasmin). The method, then:
(A) Determination of Enzyme-inhibitory Activity: The enzyme-inhibitory activities in vitro of the compounds of this invention were measured by the following procedure according to the method of M. Muramatsu et al. [[…]. Makino, Y. Hayashi and S. Fujii: J. […] (2) Inhibitory Effect on Ester-hydrolyzing Activity of Human Plasmin It was measured by using 0.1 ml of plasmin (generated by activation of plasminogen with streptokinase) and TAMe as substrate following the method described in (1).

The target of data set [3] is T2, Human Cl Esterase (Homo sapiens, UniProt P09871).
T2 sequence (P09871 438-688 limits assumed): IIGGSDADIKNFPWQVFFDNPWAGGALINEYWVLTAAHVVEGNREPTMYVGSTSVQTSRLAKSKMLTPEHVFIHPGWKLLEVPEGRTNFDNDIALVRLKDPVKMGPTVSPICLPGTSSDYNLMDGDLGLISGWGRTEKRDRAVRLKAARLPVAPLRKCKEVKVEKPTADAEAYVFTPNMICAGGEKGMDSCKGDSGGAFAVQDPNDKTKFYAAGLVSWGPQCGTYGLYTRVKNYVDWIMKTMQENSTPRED
T2 sequence (P09871 16-437 partner limits assumed): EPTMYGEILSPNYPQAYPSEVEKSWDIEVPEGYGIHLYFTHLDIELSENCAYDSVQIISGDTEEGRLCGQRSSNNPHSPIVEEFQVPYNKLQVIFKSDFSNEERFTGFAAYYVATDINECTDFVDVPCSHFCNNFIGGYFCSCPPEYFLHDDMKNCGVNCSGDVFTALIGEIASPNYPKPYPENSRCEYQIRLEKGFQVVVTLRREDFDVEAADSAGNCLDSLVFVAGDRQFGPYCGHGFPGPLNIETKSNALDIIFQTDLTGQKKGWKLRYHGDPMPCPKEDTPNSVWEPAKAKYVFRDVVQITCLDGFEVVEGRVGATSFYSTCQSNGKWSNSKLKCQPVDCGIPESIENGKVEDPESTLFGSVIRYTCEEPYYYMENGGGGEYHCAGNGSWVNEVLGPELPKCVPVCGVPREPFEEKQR
Put plainly: Inhibitory effect on ester-hydrolyzing activity of human Cl esterase (ATEe substrate). The format is biochemical. The following applies: for IC50: in vitro, acetyltyrosine ethyl ester hydrolysis, read-out: ID50 (Cl esterase); for inhibition at 1000 µM: read-out: percent inhibition at 10^-3 M (Cl esterase).
Description: It was measured by using 0.1 ml of Cl esterase, 0.1 ml of 0.02 M sodium phosphate buffer solution (pH 7.4) and 10 μmoles of ATEe (acetyltyrosine ethyl ester) as substrate following the method described in (1).

The target in data set [4] is Human Plasma Kallikrein (Homo sapiens, UniProt P03952). Put plainly: Inhibitory effect on ester-hydrolyzing activity of human plasma kallikrein (TAMe substrate). To be noted: read-out: percent inhibition at 10^-3 M (kallikrein). The format is biochemical. The procedure: (A) Determination of Enzyme-inhibitory Activity: The enzyme-inhibitory activities in vitro of the compounds of this invention were measured by the following procedure according to the method of M. Muramatsu et al. [[…]. Makino, Y. Hayashi and S. Fujii: J.
Chain of Human Plasma Kallikrein (P03952 391-638 limits assumed): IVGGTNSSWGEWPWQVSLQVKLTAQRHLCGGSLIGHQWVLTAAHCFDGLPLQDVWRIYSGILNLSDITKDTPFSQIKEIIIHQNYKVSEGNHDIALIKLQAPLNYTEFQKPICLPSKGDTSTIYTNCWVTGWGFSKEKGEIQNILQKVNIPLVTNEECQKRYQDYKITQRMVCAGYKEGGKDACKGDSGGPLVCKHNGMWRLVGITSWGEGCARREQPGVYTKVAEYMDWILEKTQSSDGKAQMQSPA
Chain of Human Plasma Kallikrein (P03952 20-390 partner limits assumed): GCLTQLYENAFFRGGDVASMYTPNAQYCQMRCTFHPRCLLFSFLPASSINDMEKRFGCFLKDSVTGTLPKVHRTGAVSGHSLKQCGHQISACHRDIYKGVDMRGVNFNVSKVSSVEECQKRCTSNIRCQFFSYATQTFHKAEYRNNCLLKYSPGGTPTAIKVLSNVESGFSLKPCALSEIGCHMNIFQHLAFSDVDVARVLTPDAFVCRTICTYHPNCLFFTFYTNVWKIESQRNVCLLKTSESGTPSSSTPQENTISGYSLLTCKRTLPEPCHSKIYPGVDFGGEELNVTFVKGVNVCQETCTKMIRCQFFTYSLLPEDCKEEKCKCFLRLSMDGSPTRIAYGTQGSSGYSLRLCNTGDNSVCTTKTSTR

For data set [5], the target named is Bovine Thrombin (Bos taurus, UniProt P00735). Put plainly: Inhibitory effect on ester-hydrolyzing activity of bovine thrombin (TAMe substrate). The format is biochemical. The following applies: for inhibition at 1000 µM: read-out: percent inhibition at 10^-3 M (thrombin). The procedure:
(4) Inhibitory Effect on Ester-Hydrolyzing Activity of Bovine Thrombin
It was measured by using 0.4 ml of bovine thrombin […], 0.02 M sodium phosphate buffer solution (pH 7.4) and TAMe as substrate following the method described in (1).

The subject of data set [6] is complement-dependent hemolysis of sensitized erythrocytes. Nature of the data set: Antihemolytic activity (prevention of complement-dependent hemolysis). The following applies: Erythrocyte, 10 min; for inhibition at 100 µM: 10^-4 M. The format is cell-based. The procedure:
(C) Determination of Antihemolytic Activity: Preventions of the complement-dependent hemolysis by the compounds of this invention were measured according to the method of B. R. Baker et al. [J. Med. Chem., 12, 408-414 (1969)] by the following procedure: […] The mixture was incubated at 37° C. for 10 minutes. The reaction was stopped by adding 2.7 ml of an ice-cold citrate-saline solution, and the resulting mixture was centrifuged at 3000 rpm for 3 minutes. Absorbance of the supernatant was measured at 541 nm. As the standard, GVB^2+ (gelatin veronal buffer) was substituted for the sample solution and, as the control, GVB^2+ was substituted for the complement.

The subject of data set [7] is Rat Masugi Nephritis. Put plainly: Effect on rat Masugi nephritis (urinary protein). The format is in vivo, Sprague-Dawley rats. The method, then: (D) Effect on Masugi Nephritis: The effect of Compound No. 73 on Masugi nephritis was investigated according to the method of Shibata et al. [S. Shibata: Men-ekigaku, Arerugi-gaku Jikkenho (Immunology, Experimental Methods in Allergology), p. 664, (1971), Bunkodo, Tokyo]. Male sprague-Dawley rats weighing about 200 g were divided into normal group, diseased group and treated group, each consisting of 7 rats. For the purpose of inducing nephritis, 0.5 ml of anti- "rat nephritis" rabbit serum, which had been prepared according to the method of Shibata et al., was administered intravenously to rats of both diseased and treated groups. To the normal group was intravenously administered the same quantity of physiological saline. The test drug was administered intraperitoneally to rats of the treated group three times, namely two days prior to, one day prior to and on the day of administration of the antiserum. From the rats of each group, a 24 hours urine specimen was collected on the day preceding, and the 1st, 2nd, 5th, 8th and 13th days following the administration of the antiserum. Protein contents of the urine specimen were determined by the sulfosalicylic acid method.

Data set [8] can be described thus: Acute toxicity by intraperitoneal administration in mice. To be noted: mouse, in vivo, ip, read-out: DL50 (acute toxicity).
Data set [9] has as its system collagen induced platelet aggregation of rabbit PRP. Put plainly: Inhibition of collagen induced platelet aggregation of rabbit PRP. The format is cell-based. The following applies: Oryctolagus cuniculus; for inhibition at 10 µg/mL: 10.0 μg/ml; for inhibition at 2.5 µg/mL: 2.5 μg/ml; for inhibition at 5 µg/mL: 5.0 μg/ml. The procedure: (B) Determination of Inhibitory Activity on Collagen Induced Platelet Aggregation:
According to the method of Born et al. [Born, G. V. R.: J. Physiol., 168. 178 (1963)], the platelet aggregation inhibition (%) was determined at various concentrations of compounds by the following procedure:
Rabbit PRP (platelet rich plasma), 0.9 ml, obtained from sodium citrate-added blood, was taken into a polyethylene tube and incubated at 37° C. for 1 minute, and then 10 μl of a compound solution or physiological saline as control, was added.
Subsequently, 0.1 ml of collagen solution was added, and change in absorbance of PRP, resulting from the progress of platelet aggregation, was determined by means of platelet aggregation meter and recorded.
Percent inhibition was calculated according to the following equation: [formula]

In data set [10] the test system is proteolytic enzymes. The following applies: prior art; cited from earlier work.

Chain of Human Plasmin (P00747 581-810 limits assumed): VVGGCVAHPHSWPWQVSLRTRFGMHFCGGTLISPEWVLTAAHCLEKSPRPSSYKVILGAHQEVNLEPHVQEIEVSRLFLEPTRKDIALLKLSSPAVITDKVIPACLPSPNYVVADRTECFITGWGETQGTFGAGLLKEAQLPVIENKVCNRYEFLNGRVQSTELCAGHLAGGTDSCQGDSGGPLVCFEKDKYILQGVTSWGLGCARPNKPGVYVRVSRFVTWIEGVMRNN
Chain of Human Plasmin (P00747 97-580 partner limits assumed): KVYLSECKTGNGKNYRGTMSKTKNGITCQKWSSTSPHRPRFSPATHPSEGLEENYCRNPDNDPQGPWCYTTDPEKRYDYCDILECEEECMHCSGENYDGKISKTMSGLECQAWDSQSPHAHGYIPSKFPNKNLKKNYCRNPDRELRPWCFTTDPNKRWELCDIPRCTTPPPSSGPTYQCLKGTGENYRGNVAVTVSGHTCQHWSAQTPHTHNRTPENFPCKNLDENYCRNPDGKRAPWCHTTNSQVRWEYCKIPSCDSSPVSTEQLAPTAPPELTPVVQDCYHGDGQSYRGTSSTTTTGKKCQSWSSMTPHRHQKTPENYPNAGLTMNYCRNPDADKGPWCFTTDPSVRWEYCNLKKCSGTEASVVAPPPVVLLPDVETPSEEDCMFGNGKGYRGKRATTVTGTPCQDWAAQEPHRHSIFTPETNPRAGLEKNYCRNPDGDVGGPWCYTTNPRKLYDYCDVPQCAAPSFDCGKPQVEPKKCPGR

In general, inhibition refers to the relative decrease from the control value, in per cent. For `CCCC(Cc1cccc(NC(=N)N)c1)C(=O)Oc1ccccc1` (stereo not drawn) [compound 68, phenyl α-n-propyl-β-(m-guanidinophenyl)-propionate], the inhibition at 1000 µM in data set [1] was under 10%; in data set [2], 22%; in data set [4], 17.6%; in data set [5] it was under 10%. Moreover, in data set [3], the IC50 was 430 µM. Besides, the inhibition at 100 µM in [6] turned out to be 30%.
With `CCC(Cc1ccc(NC(=N)N)cc1)C(=O)Oc1ccccc1` (stereo not drawn) [Compound No. 73, phenyl α-ethylβ-(p-guanidinophenyl)-propionate], the inhibition at 1000 µM was 43.9% in [1]; under 10% in data set [2]; 31.5% in data set [4]; under 10% in data set [5]; 69.1% in data set [6] (10^-3 M). Also, the IC50 in data set [3] stood at 310 µM. Besides, the inhibition at 100 µM in data set [6] turned out to be 30%. Moreover, the Protein in urine in [7] (12.5 mg/kg i.p. x3, day 1 after antiserum) is on record as 34.0 mg/day; in [7] (12.5 mg/kg i.p. x3, day 2 after antiserum) it was 42.5 mg/day; in data set [7] (12.5 mg/kg i.p. x3, day 5 after antiserum), 45.6 mg/day; in [7] (12.5 mg/kg i.p. x3, day 8 after antiserum), 76.3 mg/day; in data set [7] (12.5 mg/kg i.p. x3, day 13 after antiserum), 115.5 mg/day; in data set [7] (12.5 mg/kg i.p. x3, day -1), 6.0 mg/day. Moreover, the Protein in urine is listed as 41.1 mg/day in data set [7] (25.0 mg/kg i.p. x3, day 1 after antiserum); 33.9 mg/day in [7] (25.0 mg/kg i.p. x3, day 2 after antiserum); 39.4 mg/day in [7] (25.0 mg/kg i.p. x3, day 5 after antiserum); 63.3 mg/day in data set [7] (25.0 mg/kg i.p. x3, day 8 after antiserum); 71.5 mg/day in data set [7] (25.0 mg/kg i.p. x3, day 13 after antiserum); 4.2 mg/day in data set [7] (25.0 mg/kg i.p. x3, day -1). Further, the LD50 in data set [8] turned out to be 129 mg/kg.
Consider `Cc1ccc(OC(=O)CCc2ccc(N)cc2)cc1` [Compound No. 1, p-Methylphenyl β-(p-aminophenyl)-propionate hydrochloride], for which the inhibition at 1000 µM in data set [1], in data set [2], in data set [3] and in [4] was under 10% each time. The compound further gave an IC50 in [5] of 880 µM. Besides, the inhibition at 10 µg/mL in data set [9] was 42%.
For the compound `N=C(N)c1ccc(CC(=O)C(=O)O)cc1` [4-amidinophenylpyruvic acid], in data set [10], the “inhibitory activity to proteolytic enzymes” value is “inhibitory activity to proteolytic enzymes” and the “specificity of enzyme inhibition” value is “low in specificity”.
In the case of `COc1ccc(OC(=O)CCc2ccc(N)cc2)cc1` [compound 32, p-methoxyphenyl β-(p-aminophenyl)-propionate], the inhibition at 1000 µM in data set [1] is 38.8%; in [2], under 10%; in data set [3], under 10%; in data set [4], under 10%. The IC50 in [5] was 170 µM. This compound also displayed an inhibition at 2.5 µg/mL in [9] of 41%. Moreover, the inhibition at 5 µg/mL in data set [9] amounted to 100%. Besides, in data set [9], the inhibition at 10 µg/mL worked out at 100%.
Regarding `CCOC(=O)c1ccc(OC(=O)C(CC)Cc2ccc(NC(=N)N)cc2)cc1` (stereo not drawn) [compound 76, p-ethoxycarbonylphenylα-ethyl-β-(p-guanidinophenyl)-propionate], the inhibition at 100 µM in data set [6] turned out to be 33%.
On the same count and under the same terms, for `CC(Cc1ccc(NC(=N)N)cc1)C(=O)Oc1cccc2ccccc12` (stereo not drawn) [compound 54, 1-naphthyl α-methyl-β-(p-guanidinophenyl)-propionate] the value was 49.3%.
Consider `CCCCOc1ccc(OC(=O)CCc2ccc(N)cc2)cc1` [compound 33, p-n-butoxyphenyl β-(p-aminophenyl)-propionate], for which the IC50 in [1] (in vitro, tosylarginine methyl ester hydrolysis, read-out: ID50 (trypsin)) was 890 µM. Further, the inhibition at 1000 µM in [2] was under 10%; in data set [3], under 10%; in data set [4] it was under 10%; in [5], 19.9%. In data set [9] (0.5 μg/ml), this compound showed an inhibition at 0.5 µg/mL of 46%. This compound also registered an inhibition at 1 µg/mL in data set [9] (1.0 μg/ml) of 100%. This compound had an inhibition at 2.5 µg/mL in [9] of 100%. The compound also had an inhibition at 5 µg/mL in [9] of 100%. This compound showed an inhibition at 10 µg/mL in data set [9] of 100%.
On to `CCOC(=O)c1ccc(OC(=O)CCCCCNC(=N)N)cc1.CS(=O)(=O)O` [FOY, ethyl p-(6-guanidinohexanoyloxy)benzoate methanesulfonate], for which, in data set [10], the “inhibitory activity to proteolytic enzymes” value is “inhibitory activity to proteolytic enzymes” and the “specificity of enzyme inhibition” value is on record as “low in specificity”.
